Assay results from patent US11229623B2 (GlaxoSmithKline Intellectual Property (No.2) Limited, priority 2016, dated 2022).

molecular target: T1, human TRPV4 (Homo sapiens, UniProt Q9HBA0); test: FLIPR assay for hTRPV4 expressed in BHK cells: inhibition of Agonist Compound-induced calcium signal; assay type: cell-based; conditions: not given
T1 construct: expressed in transfected cells; host or cells: BHK/AC9 cells transduced with BacMam virus
Method in brief: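 BHK/AC9 cells transduced with BacMam human TRPV4 (MOI 78), plated 15,000 per well and cultured 24 h at 37° C. Loaded with 2 μM Fluo-4 AM plus 500 μM Brilliant Black in HBSS for 1-1.5 h at room temperature in the dark; intracellular calcium signal read by FLIPR fluorescence.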

T1 sequence (Q9HBA0 whole entry): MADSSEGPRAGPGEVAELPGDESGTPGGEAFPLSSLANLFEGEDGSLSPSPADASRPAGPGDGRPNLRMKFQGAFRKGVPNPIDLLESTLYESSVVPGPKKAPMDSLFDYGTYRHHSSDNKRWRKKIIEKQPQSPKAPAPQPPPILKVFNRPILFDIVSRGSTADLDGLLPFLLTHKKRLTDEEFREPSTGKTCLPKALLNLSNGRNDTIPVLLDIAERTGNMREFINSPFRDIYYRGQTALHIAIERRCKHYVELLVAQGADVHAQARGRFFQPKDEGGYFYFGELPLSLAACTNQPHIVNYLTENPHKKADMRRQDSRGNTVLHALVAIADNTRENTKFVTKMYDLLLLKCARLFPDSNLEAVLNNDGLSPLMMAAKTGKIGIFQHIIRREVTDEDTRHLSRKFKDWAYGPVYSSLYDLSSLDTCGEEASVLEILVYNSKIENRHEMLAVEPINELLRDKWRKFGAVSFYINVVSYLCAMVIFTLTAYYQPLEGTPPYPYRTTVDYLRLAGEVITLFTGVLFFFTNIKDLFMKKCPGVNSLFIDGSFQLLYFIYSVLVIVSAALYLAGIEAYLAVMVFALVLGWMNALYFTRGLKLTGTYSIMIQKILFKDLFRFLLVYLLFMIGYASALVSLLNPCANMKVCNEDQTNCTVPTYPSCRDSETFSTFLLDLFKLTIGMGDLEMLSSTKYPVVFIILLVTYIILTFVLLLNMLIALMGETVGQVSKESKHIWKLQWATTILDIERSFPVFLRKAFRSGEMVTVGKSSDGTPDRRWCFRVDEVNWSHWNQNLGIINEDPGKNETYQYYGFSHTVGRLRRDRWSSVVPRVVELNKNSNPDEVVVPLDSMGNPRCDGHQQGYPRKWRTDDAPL

First: C[C@H](O)[C@]1(O)CN(S(=O)(=O)c2ccc(Cl)cn2)C[C@@H]1Oc1ccc(C#N)c(F)c1 [Example 191]
Second: C[C@@H](O)[C@]1(O)CN(S(=O)(=O)c2ccc(Cl)cn2)C[C@@H]1Oc1ccc(C#N)c(F)c1 [Example 195]
The IC50 of the first is higher: 100 to 1000 nM for the first, 0.1 to 10 nM for the second. The second is the more potent here.

same assay, conditions: hTRPV4 FLIPR assay; average in at least one set of experimental runs; read-out: average IC50

For C[C@H](O)[C@@]1(O)CN(S(=O)(=O)c2ccc(C(F)(F)F)cc2C#N)C[C@@H]1Oc1ccc(C#N)c(F)c1 [Example 194, 4-(((3S,4S)-1-((2-cyano-4-(trifluoromethyl)phenyl)sulfonyl)-4-hydroxy-4-((S)-1-hydroxyethyl)pyrrolidin-3-yl)oxy)-2-fluorobenzonitrile], the IC50 was 40 nM.

same assay, conditions: hTRPV4 in BHK/AC9 cells, FLIPR calcium signal, agonist at EC80; reported as range class; read-out: IC50

First: N#Cc1ccc(O[C@H]2CN(S(=O)(=O)c3ccc(Cl)cn3)C[C@@]2(O)CO)c(OCC(F)(F)F)c1 [Example 186, 4-(((3S,4R)-1-((5-chloropyridin-2-yl)sulfonyl)-4-hydroxy-4-(hydroxymethyl)pyrrolidin-3-yl)oxy)-3-(2,2,2-trifluoroethoxy) benzonitrile]
Second: N#Cc1cc(OCC(F)(F)F)c(O[C@H]2CN(S(=O)(=O)c3ccc(Cl)cn3)C[C@@]2(O)CO)cc1F [Example 187, 4-(((3S,4R)-1-((5-chloropyridin-2-yl)sulfonyl)-4-hydroxy-4-(hydroxymethyl)pyrrolidin-3-yl)oxy)-2-fluoro-5-(2,2,2-trifluoroethoxy) benzonitrile]
The IC50 of the first is higher: 10 to 100 nM for the first, 0.1 to 10 nM for the second.

Cc1ccc(S(=O)(=O)N2C[C@H](Oc3cc(F)c(C#N)cc3OCC(C)C)[C@](O)(CO)C2)nn1 [Example 188, 2-fluoro-4-(((3S,4R)-4-hydroxy-4-(hydroxymethyl)-1-((6-methylpyridazin-3-yl)sulfonyl)pyrrolidin-3-yl)oxy)-5-isobutoxybenzonitrile] and CC(C)C[C@H](O)[C@]1(O)CN(S(=O)(=O)c2ccc(Cl)cn2)C[C@@H]1Oc1ccc(C#N)c(F)c1 [Example 192, 4-(((3S,4R)-1-((5-chloropyridin-2-yl)sulfonyl)-4-hydroxy-4-((S)-1-hydroxy-3-methylbutyl)pyrrolidin-3-yl)oxy)-2-fluorobenzonitrile] fall in the same range of IC50: 10 to 100 nM for the first, 10 to 100 nM for the second.

First: CCC[C@H](O)[C@]1(O)CN(S(=O)(=O)c2ccc(Cl)cn2)C[C@@H]1Oc1ccc(C#N)c(F)c1 [Example 189, 4-(((3S,4R)-1-((5-chloropyridin-2-yl)sulfonyl)-4-hydroxy-4-((S)-1-hydroxybutyl)pyrrolidin-3-yl)oxy)-2-fluorobenzonitrile]
Second: CCC[C@@H](O)[C@]1(O)CN(S(=O)(=O)c2ccc(Cl)cn2)C[C@@H]1Oc1ccc(C#N)c(F)c1 [Example 198, 4-(((3S,4R)-1-((5-chloropyridin-2-yl)sulfonyl)-4-hydroxy-4-((R)-1-hydroxybutyl)pyrrolidin-3-yl)oxy)-2-fluorobenzonitrile]
The IC50 of the first is higher: 10 to 100 nM for the first, 0.1 to 10 nM for the second. The second is the more potent here.

C[C@H](O)[C@]1(O)CN(S(=O)(=O)c2ccc(C(F)(F)F)cc2C#N)C[C@@H]1Oc1ccc(C#N)c(F)c1 [Example 190, 4-(((3S,4R)-1-((2-cyano-4-(trifluoromethyl)phenyl)sulfonyl)-4-hydroxy-4-(1-hydroxyethyl)pyrrolidin-3-yl)oxy)-2-fluorobenzonitrile] and C[C@@H](O)[C@]1(O)CN(S(=O)(=O)c2ccc(C(F)(F)F)cc2C#N)C[C@@H]1Oc1ccc(C#N)c(F)c1 [Example 193, 4-(((3S,4R)-1-((2-cyano-4-(trifluoromethyl)phenyl)sulfonyl)-4-hydroxy-4-((R)-1-hydroxyethyl)pyrrolidin-3-yl)oxy)-2-fluorobenzonitrile] fall in the same range of IC50: 0.1 to 10 nM for the first, 0.1 to 10 nM for the second.

First: C[C@H](O)[C@@]1(O)CN(S(=O)(=O)c2ccc(C(F)(F)F)cc2C#N)C[C@@H]1Oc1ccc(C#N)c(F)c1 [Example 194, 4-(((3S,4S)-1-((2-cyano-4-(trifluoromethyl)phenyl)sulfonyl)-4-hydroxy-4-((S)-1-hydroxyethyl)pyrrolidin-3-yl)oxy)-2-fluorobenzonitrile]
Second: C[C@H](O)[C@]1(O)CN(S(=O)(=O)c2ccc(F)cc2C#N)C[C@@H]1Oc1ccc(C#N)c(F)c1 [Example 201, 4-(((3S,4R)-1-((2-cyano-4-fluorophenyl)sulfonyl)-4-hydroxy-4-((S)-1-hydroxyethyl)pyrrolidin-3-yl)oxy)-2-fluorobenzonitrile]
The IC50 of the first is higher: 10 to 100 nM for the first, 0.1 to 10 nM for the second. The second is the more potent here.

CC[C@@H](O)[C@]1(O)CN(S(=O)(=O)c2ccc(Cl)cn2)C[C@@H]1Oc1ccc(C#N)c(F)c1 [Example 196, 4-(((3S,4R)-1-((5-chloropyridin-2-yl)sulfonyl)-4-hydroxy-4-((R)-1-hydroxypropyl)pyrrolidin-3-yl)oxy)-2-fluorobenzonitrile] and CC(C)C[C@@H](O)[C@]1(O)CN(S(=O)(=O)c2ccc(Cl)cn2)C[C@@H]1Oc1ccc(C#N)c(F)c1 [Example 197, 4-(((3S,4R)-1-((5-chloropyridin-2-yl)sulfonyl)-4-hydroxy-4-((R)-1-hydroxy-3-methylbutyl)pyrrolidin-3-yl)oxy)-2-fluorobenzonitrile] fall in the same range of IC50: 0.1 to 10 nM for the first, 0.1 to 10 nM for the second.

First: COc1ccc(S(=O)(=O)N2C[C@H](Oc3ccc(C#N)c(F)c3)[C@](O)([C@H](C)O)C2)c(C#N)c1 [Example 199, 4-(((3S,4R)-1-((2-cyano-4-methoxyphenyl)sulfonyl)-4-hydroxy-4-((S)-1-hydroxyethyl)pyrrolidin-3-yl)oxy)-2-fluorobenzonitrile]
Second: C[C@H](O)[C@]1(O)CN(S(=O)(=O)c2ccc(Cl)cc2C#N)C[C@@H]1Oc1ccc(C#N)c(F)c1 [Example 202, 4-(((3S,4R)-1-((4-chloro-2-cyanophenyl)sulfonyl)-4-hydroxy-4-((S)-1-hydroxyethyl)pyrrolidin-3-yl)oxy)-2-fluorobenzonitrile]
The IC50 of the first is higher: 10 to 100 nM for the first, 0.1 to 10 nM for the second. The second is the more potent here.

C[C@H](O)[C@]1(O)CN(S(=O)(=O)c2ccccc2C#N)C[C@@H]1Oc1ccc(C#N)c(F)c1 [Example 200, 4-(((3S,4R)-1-((2-cyanophenyl)sulfonyl)-4-hydroxy-4-((S)-1-hydroxyethyl)pyrrolidin-3-yl)oxy)-2-fluorobenzonitrile] and C[C@H](O)[C@]1(O)CN(S(=O)(=O)c2cccnc2C#N)C[C@@H]1Oc1ccc(C#N)c(F)c1 [Example 203, 3-(((3R,4S)-4-(4-cyano-3-fluorophenoxy)-3-hydroxy-3-((S)-1-hydroxyethyl)pyrrolidin-1-yl)sulfonyl) picolinonitrile] fall in the same range of IC50: 10 to 100 nM for the first, 10 to 100 nM for the second.

C[C@H](O)[C@]1(O)CN(S(=O)(=O)c2ccc(Cl)cc2Cl)C[C@@H]1Oc1ccc(C#N)c(F)c1 [Example 204, 4-(((3S,4R)-1-((2,4-dichlorophenyl)sulfonyl)-4-hydroxy-4-((S)-1-hydroxyethyl)pyrrolidin-3-yl)oxy)-2-fluorobenzonitrile] and C[C@H](O)[C@]1(O)CN(S(=O)(=O)c2ccc(C#N)cc2Cl)C[C@@H]1Oc1ccc(C#N)c(F)c1 [Example 205, 4-(((3S,4R)-1-((2-chloro-4-cyanophenyl)sulfonyl)-4-hydroxy-4-((S)-1-hydroxyethyl)pyrrolidin-3-yl)oxy)-2-fluorobenzonitrile] fall in the same range of IC50: 0.1 to 10 nM for the first, 0.1 to 10 nM for the second.

C[C@@H](O)[C@]1(O)CN(S(=O)(=O)c2ccc(C(F)(F)F)nc2)C[C@@H]1Oc1ccc(C#N)c(F)c1 [Example 206, 2-fluoro-4-(((3S,4R)-4-hydroxy-4-((R)-1-hydroxyethyl)-1-((6-(trifluoromethyl)pyridin-3-yl)sulfonyl)pyrrolidin-3-yl)oxy)benzonitrile] and C[C@@H](O)[C@]1(O)CN(S(=O)(=O)c2ccc(F)cn2)C[C@@H]1Oc1ccc(C#N)c(F)c1 [Example 207, 2-fluoro-4-(((3S,4R)-1-((5-fluoropyridin-2-yl)sulfonyl)-4-hydroxy-4-((R)-1-hydroxyethyl)pyrrolidin-3-yl)oxy)benzonitrile] fall in the same range of IC50: 10 to 100 nM for the first, 10 to 100 nM for the second.
